Legend:
Assay type in all cases: physicochemical
[1] = Dissolution in fasted state gastric media (control experiment); settings: for drug dose dissolved: after 2 hours of dissolution, fasted state gastric media
Method: (§1) Three biorelevant fed state gastric media at pH 6, pH 5 and pH 3 using the composition in Table 5 were produced. The media at these three pHs were characterised by measuring pH, buffer capacity, particle size (Z-average and polydispersity using Nanosizer) and surface tension (Kruss surface tension K6). The media were stable at time zero and physically stable after 24 hours. Similarly, the key physicochemical properties were unchanged after 24 hours. The dissolution of exemestane (4 tablet×25 mg tablets) in the media was carried out using USP 2 Dissolution Apparatus at 75 rpm (n=6 vessels). Samples of the three biorelevant media were taken from the dissolution vessels and filtered through a 0.45 micrometer nylon filter with prefilter at 5 mins, 10 mins, 15 mins, 20 mins, 25 mins, 30 mins, 45 mins, 60 mins, 90 mins and 120 mins and analysed for exemestane content by HPLC. […] Within 30 minutes more than 80% of the drug was dissolved across the three media.
The dissolution of Sturgeron (15 mg cinnarizine immediate release tablets) was tested in a fasted gastric media (control experiment) and compared with fed gastric media at pH 6, pH 5 and pH 3 using the same dissolution set up as described previously. The dissolution profile of this drug product in the fasted gastric media indicates this basic drug cinnarizine dissolves rapidly in the fasted stomach. […]
The dissolution of danazol (100 mg) hard gelatine capsules was carried out in fasted state gastric media (control) and compared with biorelevant fed state gastric media at pH 6, pH 4.5 and pH 3 as described using the set up and method in the Case Study 1. […] Case Study 6—Examining Physicochemical Properties of FEDGAS Dissolution Media Stored for 72 Hrs at Room Temperature with Dissolution of Megesterol Acetate Capsules FEDGAS media at pH 6, pH 4.5 and pH 3 were prepared by adding the appropriate amount of water in a suitable container, adding the corresponding buffer concentrate and adding the appropriate amount of readily water dispersible biorelevant precursor concentrate and mixing with a magnetic stirrer until homogeneous. […]

[2] = Dissolution in biorelevant fed state gastric media (FEDGAS), USP 2 Dissolution Apparatus at 75 rpm, HPLC; settings: for dissolution in fed state gastric media compared with fasted state gastric media: fed state gastric media across pH 6 to pH 3; for pH dependence of dissolution profiles in fed state gastric media: fed state media pH 6, pH 5, pH 3
Method: In the case studies from 1 to 4, FEDGAS media at pH 6, pH 5 and pH 3 were prepared by adding the appropriate amount of purified water in a suitable container, adding the corresponding buffer concentrate and adding the appropriate amount of biorelevant precursor concentrate and mixing with a magnetic stirrer until homogeneous.
as §1

[3] = as above; settings: within 60 minutes; fed state gastric media at pH 6, pH 4.5 and pH 3
[4] = FEDGAS dissolution media stored for 72 hrs at room temperature; settings: 160 mg capsules in 900 mL; FEDGAS pH 6, pH 4.5, pH 3; room temperature storage
Method: The dissolution of danazol (100 mg) hard gelatine capsules was carried out in fasted state gastric media (control) and compared with biorelevant fed state gastric media at pH 6, pH 4.5 and pH 3 as described using the set up and method in the Case Study 1. Referring to FIG. 6, the dissolution in fasted gastric media is negligible even after 2 hours of dissolution. Less than 0.2% of the drug dose is dissolved even after 2 hours of dissolution. […] Dissolution reaches about 55% of the dosage form within 60 minutes in fed state gastric media at pH 6, pH4.5 and pH 3 respectively. Case Study 6—Examining Physicochemical Properties of FEDGAS Dissolution Media Stored for 72 Hrs at Room Temperature with Dissolution of Megesterol Acetate Capsules FEDGAS media at pH 6, pH 4.5 and pH 3 were prepared by adding the appropriate amount of water in a suitable container, adding the corresponding buffer concentrate and adding the appropriate amount of readily water dispersible biorelevant precursor concentrate and mixing with a magnetic stirrer until homogeneous. The three media were stored at room temperature for up to 72 hours. […] The pH, buffer capacity, surface tension and particle size (Z-average) of the FEDGAS pH 6 and FEDGAS pH 3 were measured at t=0 and at t=72 hours. […]

| drug dose dissolved [1] | dissolution in fed state gastric media compared with fasted state gastric media [2] | pH dependence of dissolution profiles in fed state gastric media [2] | Compound | also measured |
| --- | --- | --- | --- | --- |
| Less than 0.1% | considerably more rapidly | – | Cc1cccc(Nc2ccccc2C(=O)O)c1C [mefenamic acid] | Dissolution, % of the dosage form ([2]; within 30 minutes, fed state gastric media pH 3): ~10%; Dissolution, % of the dosage form ([2]; within 30 minutes, fed state gastric media pH 5): ~25%; Dissolution, % of the dosage form ([2]; within 30 minutes, fed state gastric media pH 6): about 45% |
| Less than 0.2% | considerably more rapidly | – | C#C[C@]1(O)CC[C@H]2[C@@H]3CCC4=Cc5oncc5C[C@]4(C)[C@H]3CC[C@@]21C [danazol] | Dissolution, % of the dosage form [3]: about 55% |
| – | – | – | CC(=O)O[C@]1(C(C)=O)CC[C@H]2[C@@H]3C=C(C)C4=CC(=O)CC[C@]4(C)[C@H]3CC[C@@]21C [megesterol acetate] | dissolution profiles in media stored t=0, 24, 48, 72 hours [4]: identical |
| – | – | not sensitive to different pHs | C=C1C[C@@H]2[C@H](CC[C@]3(C)C(=O)CC[C@@H]23)[C@@]2(C)C=CC(=O)C=C12 [exemestane] | drug dissolved ([2]; within 30 minutes, across the three fed state media pH 6, pH 5 and pH 3, 4 x 25 mg tablets): more than 80% |

| Compound | drug dose dissolved [1] | dissolution in fed state gastric media compared with fasted state gastric media [2] | pH dependence of dissolution profiles in fed state gastric media [2] | also measured |
| --- | --- | --- | --- | --- |
| C(=C\c1ccccc1)/CN1CCN(C(c2ccccc2)c2ccccc2)CC1 [cinnarizine] | – | slower drug dissolution in all fed state gastric media | faster at lower pH | drug dissolved ([1]; within 30 minutes, fasted gastric media): ~90% |

Source: patent US20220178900A1, “BIORELEVANT COMPOSITION” (BIORELEVANT.COM LTD., priority 2019, published 2022)
